# What was measured:
# healthy adult subjects = assay: Study 2 (MAD) safety and tolerability: TEAEs, urine crystals; type: in vivo
# Procedure: Study 2 (B7921002; NCT02485769) was a 14-day, phase 1, randomized, double-blind, sponsor-open, placebo-controlled, sequential group, MAD study in healthy adult subjects (Fig. 1b).
# Subjects were enrolled sequentially into seven cohorts. Within each cohort, eight subjects and two subjects were randomized to receive PF-06650833 and placebo, respectively. Doses for all cohorts were administered after a standard (not high-fat) meal. Multiple dosing regimens (once daily [QD] 24 h apart, twice daily [BID] 12 h apart, three times per day [TID] 8 h apart, and four times per day [QID] 6 h apart) were used to provide required total daily doses. In the final dosing scheme, multiple oral doses of PF-06650833 IR suspension formulations at 25, 100, 250, and 750 mg BID and 1000 mg QID were administered in cohorts 1–5. PF-06650833 IR 330 mg TID (cohort 6) and an MR tablet at a dose of 300 mg QD (cohort 7) were also evaluated (see Fig. 1b for final dosing scheme).
# Dose escalation (cohorts 1–5) or dose selection (cohorts 6–8) was based upon the evaluation of ≥ 7 days of safety and tolerability for all subjects and ≥ 12 h of PK data for at least six subjects receiving PF-06650833. To establish an MTD, dose escalation was to cease when the limit of tolerability was achieved.
# Safety assessments included incidence and severity of treatment-emergent AEs (TEAEs) and discontinuation due to TEAEs, incidence of treatment-emergent clinical laboratory abnormalities, and proportion of subjects meeting with pre-defined criteria for potential clinical concern in vital signs and electrocardiogram (ECG) parameters.
# The safety analysis set was defined as all subjects who received at least one dose of study treatment, and data were summarized descriptively. The PK concentration analysis set was defined as all enrolled, treated subjects who had at least one concentration in at least one treatment period. The PK parameter analysis set was defined as all enrolled, treated subjects who had at least one of the PK parameters of interest in at least one treatment period. The PD analysis set was defined as all enrolled subjects who received at least one dose of PF-06650833 and had at least one PD parameter. PK/PD data were summarized descriptively.
# PK parameters were calculated using non-compartmental analysis of concentration-time data. For study 1 only, data from cohort 1 (period 4 [IR 30 mg] versus period 5 [IR 30 mg + food]) and cohort 3 (period 2 [MR 30 mg] versus period 3 [MR 30 mg + food]) were used to estimate the effect of food intake. Cmax and AUC were calculated for each subject and treatment, with and without food, after which a within-subject difference could be found between fed (high-fat meal) and fasted doses. Analysis of covariance was used to model these within-subject differences and to calculate 95% confidence intervals (CIs) for the differences for each dose (IR 30 mg and MR 30 mg). For study 2 only, the amounts of PF-06650833 in urine and renal clearance were listed and summarized descriptively. As part of the routine safety laboratory monitoring, the presence of any atypical crystals in urine specimens was semi-quantitatively assessed microscopically by typical histopathologic methods and scored as numbers of crystals per high power field (hpf); higher abundance (moderate or many) was defined as ≥ 15/hpf. No formal interim analyses were conducted.
# [1] = set-up: method as in PMID 28498658; conditions: cited from earlier work
# [2] = tested on: high-sensitivity C-reactive protein (hsCRP); assay: Study 2 (MAD) serum hsCRP pharmacodynamics; type: in vivo, human
# From the text: (§1) The primary objective of study 2 was to determine the safety and tolerability of MAD of orally administered IR and MR formulations of PF-06650833 after a standard meal in healthy adult subjects. The secondary objective was to evaluate the plasma and urine PK profiles of PF-06650833 after repeat dosing. Exploratory objectives were to assess the effects of PF-06650833 on exploratory biomarkers of PD activity, including high-sensitivity C-reactive protein (hsCRP), and to evaluate cholesterol/hydroxycholesterol ratios as an endogenous marker for cytochrome P450 3A (CYP3A) induction or inhibition.
# (§2) For both studies, samples of blood (and urine in study 2) were taken for evaluation of PK/PD parameters (see Additional file 1: Supplemental Methods). PK samples were obtained at the nominal time relative to dosing (± 10%). Plasma and urine samples were analyzed using validated, sensitive, and specific liquid chromatography tandem mass spectrometric methods (at Pfizer Inc., Groton, CT, USA, for study 1 and at Worldwide Pharmacokinetics, Dynamics and Metabolism, Cambridge, MA, USA, for study 2). The lower limit of quantification for PF-06650833 in plasma was 0.0500 ng/mL. The lower limit of quantification for PF-06650833 in urine was 1.00 ng/mL. Serum samples were also analyzed for hsCRP, and plasma samples were analyzed for 4β-hydroxycholesterol and cholesterol.
# The safety analysis set was defined as all subjects who received at least one dose of study treatment, and data were summarized descriptively. The PK concentration analysis set was defined as all enrolled, treated subjects who had at least one concentration in at least one treatment period. […]
# (§3) 35 Plasma samples were analyzed using a validated, sensitive , and specific liquid […]
# 38 MA, USA for Study 2). The lower limit of quantification (LLOQ) for PF-06650833 in plasma
# 39 was 0.0500 ng/mL. Between-day assay accuracy values were also calculated (not shown). […]
# 44 cohorts. Urine samples were also analyzed using a validated, sensitive , and specific LC-MS […]
# CYP3A = assay: 4β-hydroxycholesterol/cholesterol ratio as endogenous marker of CYP3A; type: in vivo, human; conditions: MAD, doses up to 750 mg BID
# From the text: as §1
# as §2, with “PK samples were obtained at the nominal time relative to dosing (± 10%).” left out, “cholesterol. […]” for “cholesterol.”
# as §3
# [3] = IR 100 mg BID, 14 days, fed, 8 evaluable
structure (smiles),measurement,setting,value
"CC[C@@H]1[C@H](F)C(=O)N[C@@H]1COc1nccc2cc(C(N)=O)c(OC)cc12 [PF-06650833, 1-{[(2S,3S,4S)-3-Ethyl-4-fluoro-5-oxopyrrolidin-2-yl]methoxy}-7-methoxyisoquinoline-6-carboxamide]","Infections and infestations: subjects with AE, all causalities (treatment-related)",healthy adult subjects; [3],1 (0)
same,"Upper respiratory tract infection: subjects with AE, all causalities (treatment-related)",healthy adult subjects; [3],1 (0)
same,"Nasal congestion: subjects with AE, all causalities (treatment-related)","healthy adult subjects; IR 330 mg TID, 14 days, fed, 8 evaluable",1 (1)
same,"Infections and infestations: subjects with AE, all causalities (treatment-related)","healthy adult subjects; IR 750 mg BID, 14 days, fed, 8 evaluable",1 (1)
same,"Infections and infestations: subjects with AE, all causalities (treatment-related)","healthy adult subjects; MR 300 mg QD, 14 days, fed, 8 evaluable",1 (0)
same,Serious AEs or deaths,healthy adult subjects; all dose groups,No serious AEs or deaths
same,Severity of TEAEs,healthy adult subjects; in vivo,mild or moderate
same,Maximum tolerated dose,"healthy adult subjects; multiple doses up to IR 1000 mg QID, MR 300 mg QD",not established
same,Permeability,[1],high-permeability compound
same,Day by which maximal hsCRP reduction was reached,[2]; IR ≥ 250 mg BID and MR 300 mg QD,≤ 7 days
same,Change from baseline in serum hsCRP,"[2]; IR ≥ 250 mg BID and MR 300 mg QD, multiple dosing",sustained decrease
same,Reduction from baseline in hsCRP (geometric mean percentage),"[2]; day 14, highest dose groups",60–70%
same,CYP3A induction or inhibition based on cholesterol/hydroxycholesterol ratio,CYP3A,no apparent trend for CYP3A induction or inhibition
